From patent US8088924B2, “Pyridone derivatives having a binding activity to the cannabinoid type 2 receptor” (Shionogi & Co., Ltd., priority 2000, dated 2012)

What was measured:
[1] = target: T1, human CB1 receptor (Homo sapiens, UniProt P21554); test: Human CB1 receptor binding assay ([3H]CP55940, membranes of CB1R-expressing CHO cells); conditions: [3H]CP55940 0.5 nM
T1 construct: expressed in transfected cells
Protocol: Receptor binding assay was performed by incubating the membranes with each test compound and [^3H]CP55940 (at a final concentration of 0.5 nM: NEN Life Science Products) in the assay buffer (50 mM Tris-HCl, 1 mM EDTA, 3 mM MgCl2, pH 7.4) containing 0.5% bovine serum albumin (BSA) for 2 h at 25° C. The incubation mixture was filtered through 1% polyethylenimine-treated GF/C glass filter and washed with 50 mM Tris-HCl (pH 7.4) containing 0.1% BSA. The radioactivity was then counted with a liquid scintillation counter.
(§1) For the receptor binding assay of human CB1 receptor (CB1R), the stable CB1R-expressing CHO cells were prepared as described above, and the binding assay was performed using their membrane fractions.

[2] = target: T2, human CB2 receptor (Homo sapiens, UniProt P34972); test: Human CB2 receptor binding inhibition ([3H]CP55940, membranes of CB2R-expressing CHO cells)
T2 construct: The coding region of human CB2 receptor (CB2R) cDNA (Munro etc, Nature, 1993, 365, 61-65) was inserted into the mammalian expression vector; expressed in transfected cells
T2 sequence (P34972 whole entry): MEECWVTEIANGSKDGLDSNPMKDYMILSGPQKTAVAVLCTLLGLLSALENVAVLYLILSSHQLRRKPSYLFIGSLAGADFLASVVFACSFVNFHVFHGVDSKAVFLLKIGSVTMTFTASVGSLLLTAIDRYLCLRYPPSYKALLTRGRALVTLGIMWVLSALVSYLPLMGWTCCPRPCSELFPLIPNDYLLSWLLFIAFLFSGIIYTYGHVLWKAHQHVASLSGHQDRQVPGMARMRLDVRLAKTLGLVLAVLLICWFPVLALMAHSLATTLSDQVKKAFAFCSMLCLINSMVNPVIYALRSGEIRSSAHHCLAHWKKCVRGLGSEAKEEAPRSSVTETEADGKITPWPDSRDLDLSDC
Protocol: The crude membrane fractions were prepared from the CB2R-expressing CHO cells. Receptor binding assay was performed by incubating the membranes with each test compound and [^3H]CP55940 (at a final concentration of 0.5 nM: NEN Life Science Products) in the assay buffer (50 mM Tris-HCl, 1 mM EDTA, 3 mM MgCl2, pH 7.4) containing 0.5% bovine serum albumin (BSA) for 2 h at 25° C. The incubation mixture was filtered through 1% polyethylenimine-treated GF/C glass filter and washed with 50 mM Tris-HCl (pH 7.4) containing 0.1% BSA. The radioactivity was then counted with a liquid scintillation counter.
as §1

T1 sequence (P21554 whole entry): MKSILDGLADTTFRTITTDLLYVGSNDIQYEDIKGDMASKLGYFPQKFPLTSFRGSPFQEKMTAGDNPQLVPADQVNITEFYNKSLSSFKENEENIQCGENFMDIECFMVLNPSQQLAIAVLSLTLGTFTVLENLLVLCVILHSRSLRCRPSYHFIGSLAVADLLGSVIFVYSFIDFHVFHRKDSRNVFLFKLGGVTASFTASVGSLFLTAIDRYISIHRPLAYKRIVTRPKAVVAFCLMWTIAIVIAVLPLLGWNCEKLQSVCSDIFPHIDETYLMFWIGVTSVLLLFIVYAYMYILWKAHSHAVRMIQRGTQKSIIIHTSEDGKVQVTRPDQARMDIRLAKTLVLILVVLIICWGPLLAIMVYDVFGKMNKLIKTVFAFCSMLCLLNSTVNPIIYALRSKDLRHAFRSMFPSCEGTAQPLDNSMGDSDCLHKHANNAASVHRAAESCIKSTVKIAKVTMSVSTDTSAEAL

## CCCCn1c(C)c(C)cc(NC(=O)c2ccc(F)cc2)c1=O
other
  melting point: 129 to 130 °C

## CCCCn1c(C)c(C)cc(NC(=O)c2ccccc2C)c1=O [Example 5-006]
[1]
  Ki: 390 nM

## CCCCn1c2c(cc(C(=O)NCCc3ccc(N)cc3)c1=O)CCCC2 [Example 4-003]
[2]
  Ki: 44 nM
[1]
  Ki: 680 nM

## Cc1ccc(Oc2nc3ccccc3o2)c(=S)n1C
other
  melting point: 245 to 247 °C

## CCCCn1c(C)c(C)cc(NC(=O)c2ccccc2Cl)c1=O [Example 5-005]
[1]
  Ki: 391 nM

## CCn1c(C)c(C)cc(C(=O)NCc2ccccc2)c1=O
other
  melting point: 117 °C
